This is an account of results in ChEMBL document CHEMBL3286252, “Synthesis, biological evaluation and structure-activity relationship of new GABA uptake inhibitors, derivatives of 4-aminobutanamides” (Eur J Med Chem, 2014).

pIC50, pKi: −log10 of the molar value.

In one series the target is T1, GABA transporter 4 (Mus musculus, UniProt P31650).
T1 sequence (P31650 whole entry): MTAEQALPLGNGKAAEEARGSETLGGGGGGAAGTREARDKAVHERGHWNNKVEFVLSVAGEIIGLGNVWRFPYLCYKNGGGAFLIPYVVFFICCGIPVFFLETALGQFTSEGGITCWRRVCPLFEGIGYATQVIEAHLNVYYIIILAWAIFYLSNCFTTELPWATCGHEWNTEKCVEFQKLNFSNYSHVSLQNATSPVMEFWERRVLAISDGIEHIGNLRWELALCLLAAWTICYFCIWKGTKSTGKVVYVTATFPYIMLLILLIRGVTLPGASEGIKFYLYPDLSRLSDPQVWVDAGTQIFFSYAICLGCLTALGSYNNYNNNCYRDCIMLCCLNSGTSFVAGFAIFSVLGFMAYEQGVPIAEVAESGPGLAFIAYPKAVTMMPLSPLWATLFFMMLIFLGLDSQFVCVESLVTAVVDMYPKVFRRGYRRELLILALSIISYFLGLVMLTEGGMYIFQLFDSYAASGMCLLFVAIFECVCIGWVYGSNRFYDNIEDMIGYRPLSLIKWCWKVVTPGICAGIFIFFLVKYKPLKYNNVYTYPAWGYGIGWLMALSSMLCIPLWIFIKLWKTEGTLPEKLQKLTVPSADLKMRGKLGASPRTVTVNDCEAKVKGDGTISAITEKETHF
Description: Inhibition of mouse GAT4 expressed in HEK293 cells assessed as decrease in [3H]GABA uptake. Type of series: cell-based.

In the next series the target is T2, GABA transporter 2 (Mus musculus, UniProt P31651).
T2 sequence (P31651 whole entry): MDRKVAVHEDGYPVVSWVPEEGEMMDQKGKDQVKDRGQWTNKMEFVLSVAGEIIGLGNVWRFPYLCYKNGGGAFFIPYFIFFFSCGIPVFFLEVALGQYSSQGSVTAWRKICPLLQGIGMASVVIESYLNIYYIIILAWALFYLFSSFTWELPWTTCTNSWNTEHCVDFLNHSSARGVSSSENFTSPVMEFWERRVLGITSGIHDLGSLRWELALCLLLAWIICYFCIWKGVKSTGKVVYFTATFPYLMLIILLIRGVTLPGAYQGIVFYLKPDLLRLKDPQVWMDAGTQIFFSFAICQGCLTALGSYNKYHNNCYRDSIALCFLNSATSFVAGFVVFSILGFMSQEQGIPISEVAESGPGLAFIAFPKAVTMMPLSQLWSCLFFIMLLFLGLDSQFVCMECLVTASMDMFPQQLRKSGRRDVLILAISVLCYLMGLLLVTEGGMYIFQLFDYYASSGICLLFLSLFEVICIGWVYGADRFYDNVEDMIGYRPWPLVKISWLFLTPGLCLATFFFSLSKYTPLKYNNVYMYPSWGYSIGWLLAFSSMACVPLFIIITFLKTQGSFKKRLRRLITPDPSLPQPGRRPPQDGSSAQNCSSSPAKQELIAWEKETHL
Description: Inhibition of mouse GAT2 expressed in HEK293 cells assessed as decrease in [3H]GABA uptake. Type of series: cell-based.

Series [1] is described as follows: Retardation factor of the compound using hexane/ethanol/TEA at ratio of 7:2:1 as solvent system by thin layer chromatography. In kind it is physicochemical.
Series [2] deals with T3, Sodium- and chloride-dependent GABA transporter 1 (Mus musculus, UniProt P31648). The series can be described thus: Displacement of NO711 from mouse GAT1 expressed in HEK293 cells by LC-MS/MS analysis. Type of series: cell-based.
The target in series [3] is T3, Sodium- and chloride-dependent GABA transporter 1. Description: Inhibition of mouse GAT1 expressed in HEK293 cells assessed as decrease in [3H]GABA uptake. Type of series: cell-based.
In another series the target is T4, GABA transporter 3 (Mus musculus, UniProt P31649).
T4 sequence (P31649 whole entry): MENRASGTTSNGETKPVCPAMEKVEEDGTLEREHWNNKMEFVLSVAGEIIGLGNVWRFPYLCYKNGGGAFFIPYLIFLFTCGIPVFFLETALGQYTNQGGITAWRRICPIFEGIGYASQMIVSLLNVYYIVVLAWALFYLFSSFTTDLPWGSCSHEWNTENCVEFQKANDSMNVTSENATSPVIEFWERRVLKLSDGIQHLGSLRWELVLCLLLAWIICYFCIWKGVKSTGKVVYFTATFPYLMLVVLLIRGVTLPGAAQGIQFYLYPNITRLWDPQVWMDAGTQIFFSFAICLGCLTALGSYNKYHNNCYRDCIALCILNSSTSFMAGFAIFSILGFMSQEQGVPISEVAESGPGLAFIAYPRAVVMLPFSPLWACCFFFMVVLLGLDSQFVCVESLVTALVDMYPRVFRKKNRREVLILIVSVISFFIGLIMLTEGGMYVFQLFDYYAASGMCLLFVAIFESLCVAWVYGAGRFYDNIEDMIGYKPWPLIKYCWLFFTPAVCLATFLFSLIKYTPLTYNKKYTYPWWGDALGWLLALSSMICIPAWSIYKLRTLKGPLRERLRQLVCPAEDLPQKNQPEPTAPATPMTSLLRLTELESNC
Description: Inhibition of mouse GAT3 expressed in HEK293 cells assessed as decrease in [3H]GABA uptake. In kind it is cell-based.

The nature of series [4]: Retardation factor of the compound using 25%NH3/MeOH/DCM/PE at ratio of 45:225:600:90 as solvent system by thin layer chromatography. Type of series: physicochemical.

By pIC50 is commonly meant −log10 of the IC50, conventionally taken in molar units. One may read the pKi as the negative decadic logarithm of the Ki, by convention in mol/L. Low readings indicate a high Ki, high ones a low Ki.

With `CN(CCCC(c1ccccc1)c1ccccc1)C(CCN)C(=O)NCc1ccccc1Cl` (configuration not stated), the pIC50 on GABA transporter 4 is 4.94; at GABA transporter 2, 5.11; in series [3], 4.90; at GABA transporter 3, 4.72. In addition, the Rf in series [1] was determined as 0.15. The negative logarithm of the Ki (pKi) in series [2] was 4.67.
For the molecule `NCCC(C(=O)NCc1ccccc1)N1CCC(=C(c2ccccc2)c2ccccc2)CC1` (configuration not stated), the pIC50 was 4.92 at GABA transporter 4, 4.81 at GABA transporter 2, 4.96 in series [3] and 4.86 at GABA transporter 3. This molecule showed a pKi in series [2] of 4.78. Moreover, the Rf in series [4] is 0.74.
In the case of `Cc1ccc(CNC(=O)C(CCN)NCCC=C(c2ccccc2)c2ccccc2)cc1` (configuration not stated), the pIC50 at GABA transporter 4 was 4.82; at GABA transporter 2, 5.05; in series [3], 4.71; on GABA transporter 3 it was 4.53. Further, the Rf in series [1] is given as 0.16. Also, the pKi in series [2] was 4.96.
For the molecule `Cc1ccc(CNC(=O)C(CCN)N(C)CCCC(c2ccccc2)c2ccccc2)cc1` (configuration not stated), the negative-log IC50 (pIC50) on GABA transporter 4 is 5.08; on GABA transporter 2, 4.85; in series [3], 4.91; on GABA transporter 3, 4.64. Also, the Rf in series [1] is 0.17. In addition, the pKi in series [2] is 4.81.
`Cc1ccc(CNC(=O)C(CCN)N(C)CCC=C(c2ccccc2)c2ccccc2)cc1` (configuration not stated): the pIC50 at GABA transporter 4 was 5.01; on GABA transporter 2 it was 5.02; in series [3] it was 5.07; at GABA transporter 3, 4.92. The molecule also showed a pKi in series [2] of 5.04. In addition, the Rf in series [4] is on record as 0.84.
Regarding `NCCC(NCCC=C(c1ccccc1)c1ccccc1)C(=O)NCc1ccc(F)cc1` (configuration not stated), the pIC50 was 4.50 at GABA transporter 4, 4.92 on GABA transporter 2, 4.56 in series [3] and 4.61 on GABA transporter 3. Besides, the Rf in series [1] is recorded as 0.15. For the same molecule, the pKi in series [2] is 4.64.
For `NCCC(C(=O)NCc1ccc(Cl)cc1)N1CCC(=C(c2ccccc2)c2ccccc2)CC1` (configuration not stated), the pIC50 was 4.92 at GABA transporter 4, 4.98 at GABA transporter 2, 4.96 in series [3] and 4.89 at GABA transporter 3. The pKi in series [2] was 4.62. Further, the Rf in series [4] turned out to be 0.8.
Consider `CN(CCCC(c1ccccc1)c1ccccc1)C(CCN)C(=O)NCc1ccc(Cl)cc1` (configuration not stated), for which the pIC50 is 4.84 on GABA transporter 4, 4.76 on GABA transporter 2, 4.76 in series [3] and 4.67 on GABA transporter 3. Moreover, in series [1], the Rf was found to be 0.1. The molecule further showed a pKi in series [2] of 4.75.
Consider `NCCC(C(=O)NCc1ccccc1Cl)N1CCC(=C(c2ccccc2)c2ccccc2)CC1` (configuration not stated), for which the pIC50 on GABA transporter 4 is 4.96; at GABA transporter 2 it was 4.99; in series [3], 4.87; at GABA transporter 3, 4.81. The pKi in series [2] was 4.98. The Rf in series [4] was 0.78.
Consider `NCCC(C(=O)NCc1ccccc1Cl)N1CCC(C(c2ccccc2)c2ccccc2)CC1` (configuration not stated), for which the pIC50 on GABA transporter 4 is 4.99; at GABA transporter 2 it was 5.23; in series [3], 4.86; on GABA transporter 3, 4.96. Besides, in series [2], the pKi is 4.59. Further, the Rf in series [4] came out at 0.79.
Regarding `Cc1ccc(CNC(=O)C(CCN)N2CCC(=C(c3ccccc3)c3ccccc3)CC2)cc1` (configuration not stated), the pIC50 at GABA transporter 4 is 4.94; on GABA transporter 2, 5.23; in series [3], 4.95; at GABA transporter 3, 4.79. This molecule also gave a negative logarithm of the Ki (pKi) in series [2] of 4.53. Also, the Rf in series [4] came to 0.73.
For the molecule `CN(CCC=C(c1ccccc1)c1ccccc1)C(CCN)C(=O)NCc1ccc(F)cc1` (configuration not stated), the pIC50 on GABA transporter 4 is 4.90; on GABA transporter 2, 4.89; in series [3] it was 4.86; at GABA transporter 3, 4.96. This molecule showed a pKi in series [2] of 4.80. The Rf in series [4] was 0.79.
On to `NCCC(C(=O)NCc1ccc(Cl)cc1)N1CCC(C(c2ccccc2)c2ccccc2)CC1` (configuration not stated), for which the pIC50 was 4.99 at GABA transporter 4, 5.01 at GABA transporter 2, 4.95 in series [3] and 5.02 at GABA transporter 3. In addition, in series [2], the pKi was 4.52. For the same molecule, the Rf in series [4] is given as 0.77.
For `CN(CCC=C(c1ccccc1)c1ccccc1)C(CCN)C(=O)NCc1ccccc1Cl` (configuration not stated), the pIC50 on GABA transporter 4 was 5.04; at GABA transporter 2, 5.19; in series [3], 4.89; on GABA transporter 3, 5.00. For the same molecule, the negative-log Ki (pKi) in series [2] was 4.96. Besides, the Rf in series [4] is given as 0.76.
Take `Cc1ccc(CNC(=O)C(CCN)N2CCC(C(c3ccccc3)c3ccccc3)CC2)cc1` (configuration not stated): the pIC50 at GABA transporter 4 was 5.13; on GABA transporter 2, 5.10; in series [3] it was 4.88; on GABA transporter 3 it was 4.84. The pKi in series [2] was 4.78. Further, in series [4], the Rf was 0.92.
For `CN(CCC=C(c1ccccc1)c1ccccc1)C(CCN)C(=O)NCc1ccc(Cl)cc1` (configuration not stated), the pIC50 on GABA transporter 4 was 4.90; on GABA transporter 2, 5.01; in series [3], 4.89; on GABA transporter 3 it was 4.95. In series [2], the pKi is 4.95. Moreover, in series [4], the Rf was 0.73.
For the molecule `NCCC(C(=O)NCc1ccc(F)cc1)N1CCC(C(c2ccccc2)c2ccccc2)CC1` (configuration not stated), the pIC50 at GABA transporter 4 is 5.07; on GABA transporter 2 it was 5.03; in series [3], 4.80; at GABA transporter 3 it was 4.67. This molecule gave a pKi in series [2] of 4.47. The Rf in series [4] stood at 0.9.
As to `CN(CCC=C(c1ccccc1)c1ccccc1)C(CCN)C(=O)NCc1ccccc1` (configuration not stated), the negative logarithm of the IC50 (pIC50) is 4.80 on GABA transporter 4, 4.92 at GABA transporter 2, 4.73 in series [3] and 4.62 at GABA transporter 3. In series [2], this molecule showed a pKi of 4.90. In series [4], the Rf worked out at 0.74.
With `NCCC(C(=O)NCc1ccccc1)N1CCC(C(c2ccccc2)c2ccccc2)CC1` (configuration not stated), the pIC50 at GABA transporter 4 is 4.70; at GABA transporter 2, 4.92; in series [3], 4.71; at GABA transporter 3 it was 4.69. Besides, the negative-log Ki (pKi) in series [2] was 4.49. Besides, the Rf in series [4] came out at 0.92.
Regarding `NCCC(C(=O)NCc1ccc(F)cc1)N1CCN(C(c2ccccc2)c2ccccc2)CC1` (configuration not stated), the pIC50 was 4.43 on GABA transporter 4, 4.51 at GABA transporter 2, 4.63 in series [3] and 4.47 at GABA transporter 3. Besides, the negative-log Ki (pKi) in series [2] is 4.18. Moreover, the Rf in series [4] is 0.12.
Regarding `NCCC(C(=O)NCc1ccc(F)cc1)N1CCC(=C(c2ccccc2)c2ccccc2)CC1` (configuration not stated), the pIC50 on GABA transporter 4 was 4.87; on GABA transporter 2, 4.99; in series [3], 4.96; at GABA transporter 3, 4.91. In addition, in series [2], the pKi was 4.60. In addition, the Rf in series [4] came to 0.77.
Consider `Cc1ccc(CNC(=O)C(CCN)N2CCN(C(c3ccccc3)c3ccccc3)CC2)cc1` (configuration not stated), for which the pIC50 is 4.63 at GABA transporter 4, 4.52 at GABA transporter 2, 4.55 in series [3] and 4.74 at GABA transporter 3. In addition, the pKi in series [2] was 4.20. The Rf in series [4] came to 0.18.
